Experimental data from patent US20100267561A1, “HERBICIDAL PYRIDAZINONE DERIVATIVES” (priority 2007, published 2010).
Where two headings read alike, the source gives them in different places.

Legend:
Format in all cases: in vivo
[1] = system: wheat (Triticum aestivum); assay: Test A pre-/postemergence plant response; settings: Triticum aestivum, 240 h, read-out: Plant response rating, Wheat; for plant injury at 125 g/ha: 125 g ai/ha; for plant injury at 500 g/ha: 500 g ai/ha
In short: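 Seeds were planted in blended loam soil and sand, then treated preemergence by directed soil spray. At that time, emerged plants (one- to two-leaf, 2–10 cm) received postemergence applications of the same surfactant-containing formulation. Injury was assessed visually on a 0–100 scale after approximately 10 days.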

[2] = system: Italian ryegrass (Lolium multiflorum); assay: Test B pre-/postemergence plant response; settings: Lolium multiflorum, read-out: Plant response rating, Ryegrass, Italian; for pest or weed control at 16 g/ha: 16 g ai/ha; for pest or weed control at 31 g/ha: 31 g ai/ha, 100 complete control; for pest or weed control at 62 g/ha: 62 g ai/ha; for pest or weed control at 125 g/ha: 125 g ai/ha
From the text: (§1) Seeds of plant species selected from blackgrass (Alopecurus myosuroides), downy bromegrass (Bromus tectorum), green foxtail (Setaria viridis), Italian ryegrass (Lolium multiflorum), wheat (Triticum aestivum), wild oat (Avena fatua), catchweed bedstraw (Galium aparine), bermudagrass (Cynodon dactylon), surinam grass (Brachiaria decumbens), cocklebur (Xanthium strumarium), corn (Zea mays), large crabgrass (Digitaria sanguinalis), woolly cupgrass (Eriochloa villosa), giant foxtail (Setaria faberii), goosegrass (Eleusine indica), johnsongrass (Sorghum halepense), kochia (Kochia scoparia), lambsquarters (Chenopodium album), morningglory (Ipomoea coccinea), eastern black (E.B.) nightshade (Solanum ptycanthum), yellow nutsedge (Cyperus esculentus), pigweed (Amaranthus retroflexus), common ragweed (Ambrosia elation), Russian thistle (Salsola iberica), soybean (Glycine max), common (oilseed) sunflower (Helianthus annuus), and velvetleaf (Abutilon theophrasti) were planted and treated preemergence with test chemicals formulated in a non-phytotoxic solvent mixture which included a surfactant.
(§2) At the same time, plants selected from these crop and weed species and also winter barley (Hordeum vulgare), canarygrass (Phalaris minor), chickweed (Stellaria media) and windgrass (Apera spica-venti) were treated with postemergence applications of some of the test chemicals formulated in the same manner. Plants ranged in height from 2 to 18 cm (1- to 4-leaf stage) for postemergence treatments.
(§3) Plant species in the flooded paddy test consisted of rice (Oryza sativa), umbrella sedge (Cyperus difformis), ducksalad (Heteranthera limosa) and barnyardgrass (Echinochloa crus-galli) grown to the 2-leaf stage for testing. At time of treatment, test pots were flooded to 3 cm above the soil surface, treated by application of test compounds directly to the paddy water, and then maintained at that water depth for the duration of the test. Treated plants and controls were maintained in a greenhouse for 13 to 15 days, after which time all species were compared to controls and visually evaluated. Plant response ratings, summarized in Table B, are based on a scale of 0 to 100 where 0 is no effect and 100 is complete control. A dash (-) response means no test result.

[3] = system: cocklebur (Xanthium strumarium); assay: Test B pre-/postemergence plant response; settings: Xanthium strumarium, read-out: Plant response rating, Cocklebur; for pest or weed control at 62 g/ha: 62 g ai/ha; for pest or weed control at 125 g/ha: 125 g ai/ha
From the text: as §1, §2, §3

[4] = system: common ragweed (Ambrosia elation); assay: Test B pre-/postemergence plant response; settings: Ambrosia, read-out: Plant response rating, Ragweed; for pest or weed control at 16 g/ha: 16 g ai/ha; for pest or weed control at 31 g/ha: 31 g ai/ha, 100 complete control; for pest or weed control at 62 g/ha: 62 g ai/ha; for pest or weed control at 125 g/ha: 125 g ai/ha
From the text: as §1, §2, §3

[5] = system: eastern black (E.B.) nightshade (Solanum ptycanthum); assay: Test B pre-/postemergence plant response; settings: Solanum, pre-emergence, Preemergence, read-out: Plant response rating, Nightshade, E. B.
From the text: as §1, §2, §3

[6] = system: goosegrass (Eleusine indica); assay: Test B pre-/postemergence plant response; settings: Eleusine indica, read-out: Plant response rating, Goosegrass; for pest or weed control at 16 g/ha: 16 g ai/ha; for pest or weed control at 31 g/ha: 31 g ai/ha, 100 complete control; for pest or weed control at 62 g/ha: 62 g ai/ha; for pest or weed control at 125 g/ha: 125 g ai/ha
From the text: as §1, §2, §3

[7] = system: kochia (Kochia scoparia); assay: Test B pre-/postemergence plant response; settings: Postemergence
From the text: as §1, §2, §3

[8] = system: pigweed (Amaranthus retroflexus); assay: Test B pre-/postemergence plant response; settings: Amaranthus retroflexus, post-emergence, Postemergence, read-out: Plant response rating, Pigweed
From the text: as §1, §2, §3

[9] = system: soybean (Glycine max); assay: Test B pre-/postemergence plant response; settings: Glycine max, read-out: Plant response rating, Soybean; for plant injury at 16 g/ha: 16 g ai/ha; for plant injury at 31 g/ha: 31 g ai/ha, 100 complete control; for plant injury at 62 g/ha: 62 g ai/ha; for plant injury at 125 g/ha: 125 g ai/ha
From the text: as §1, §2, §3

[10] = system: woolly cupgrass (Eriochloa villosa); assay: Test B pre-/postemergence plant response; settings: Eriochloa villosa, read-out: Plant response rating, Cupgrass, Woolly; for pest or weed control at 16 g/ha: 16 g ai/ha; for pest or weed control at 31 g/ha: 31 g ai/ha, 100 complete control; for pest or weed control at 62 g/ha: 62 g ai/ha; for pest or weed control at 125 g/ha: 125 g ai/ha
From the text: as §1, §2, §3

[11] = system: yellow nutsedge (Cyperus esculentus); assay: Test B pre-/postemergence plant response; settings: Cyperus, read-out: Plant response rating, Nutsedge, Yellow; for pest or weed control at 16 g/ha: 16 g ai/ha; for pest or weed control at 31 g/ha: 31 g ai/ha, 100 complete control; for pest or weed control at 62 g/ha: 62 g ai/ha; for pest or weed control at 125 g/ha: 125 g ai/ha
From the text: as §1, §2, §3

[12] = post-emergence, Postemergence, 0 to 100 scale, 0 no effect, 100 complete control
[13] = pre-emergence, Preemergence, 0 to 100 scale (0 no effect, 100 complete control)
[14] = post-emergence, Postemergence, scale 0 to 100
[15] = post-emergence, Postemergence, scale 0 to 100, 0 no effect
[16] = pre-emergence, Preemergence, scale 0 to 100 (0 no effect, 100 complete control)
[17] = pre-emergence, Preemergence, 0 to 100 scale, 0 no effect
[18] = pre-emergence, Preemergence, scale 0 to 100
[19] = 31 g ai/ha, scale 0 to 100, 0 no effect, 100 complete control

CCc1cc(-c2ccc(C(F)(F)F)cc2)nn1-c1c(O)cnn(C)c1=O [Compound 11, 4-[5-ethyl-3-[4-(trifluoromethyl)phenyl]-1H-pyrazol-1-yl]-5-hydroxy-2-methyl-3(2H)-pyridazinone]
plant injury at 125 g/ha [1, 12]: 80% | plant injury at 500 g/ha [1, 12]: 100% | plant injury at 125 g/ha [1, 13]: 100% | plant injury at 500 g/ha [1, 13]: 100% | pest or weed control at 16 g/ha [2, 14]: 100% | pest or weed control at 31 g/ha [2, 15]: 100% | pest or weed control at 62 g/ha [2, 14]: 100% | pest or weed control at 125 g/ha [2, 14]: 100% | pest or weed control at 16 g/ha [2, 16]: 90% | pest or weed control at 31 g/ha [2, 17]: 100% | pest or weed control at 62 g/ha [2, 18]: 100% | pest or weed control at 125 g/ha [2, 18]: 100% | pest or weed control at 16 g/ha ([3]; post-emergence, Postemergence, 16 g ai/ha, scale 0 to 100): 0% | pest or weed control at 31 g/ha ([3]; post-emergence, Postemergence, 31 g ai/ha, scale 0 to 100, 0 no effect, 100 complete control): 0% | pest or weed control at 62 g/ha [3, 14]: 0% | pest or weed control at 125 g/ha [3, 14]: 0% | pest or weed control at 62 g/ha [3, 18]: 0% | pest or weed control at 125 g/ha [3, 18]: 0% | pest or weed control at 16 g/ha [4, 14]: 0% | pest or weed control at 31 g/ha [4, 15]: 0% | pest or weed control at 62 g/ha [4, 14]: 0% | pest or weed control at 125 g/ha [4, 14]: 0% | pest or weed control at 16 g/ha [4, 16]: 0% | pest or weed control at 31 g/ha [4, 17]: 0% | pest or weed control at 62 g/ha [4, 18]: 0% | pest or weed control at 125 g/ha [4, 18]: 0% | pest or weed control at 31 g/ha ([5]; 31 g ai/ha, 0 to 100 scale, 0 no effect, 100 complete control): 0% | pest or weed control at 62 g/ha ([5]; 62 g ai/ha, scale 0 to 100): 0% | pest or weed control at 125 g/ha ([5]; 125 g ai/ha, scale 0 to 100): 0% | pest or weed control at 16 g/ha [6, 14]: 100% | pest or weed control at 31 g/ha [6, 15]: 100% | pest or weed control at 62 g/ha [6, 14]: 100% | pest or weed control at 125 g/ha [6, 14]: 100% | pest or weed control at 16 g/ha [6, 16]: 85% | pest or weed control at 31 g/ha [6, 17]: 90% | pest or weed control at 62 g/ha [6, 18]: 100% | pest or weed control at 125 g/ha [6, 18]: 100% | Plant response rating, Kochia ([7]; 16 g ai/ha, scale 0 to 100): 0 | Plant response rating, Kochia [7, 19]: 0 | Plant response rating, Kochia ([7]; 62 g ai/ha, scale 0 to 100): 0 | Plant response rating, Kochia ([7]; 125 g ai/ha, scale 0 to 100): 0 | pest or weed control at 16 g/ha ([8]; 16 g ai/ha, scale 0 to 100): 0% | pest or weed control at 31 g/ha [8, 19]: 0% | pest or weed control at 62 g/ha ([8]; 62 g ai/ha, scale 0 to 100): 0% | pest or weed control at 125 g/ha ([8]; 125 g ai/ha, scale 0 to 100): 5% | plant injury at 16 g/ha [9, 14]: 0% | plant injury at 31 g/ha [9, 15]: 0% | plant injury at 62 g/ha [9, 14]: 0% | plant injury at 125 g/ha [9, 14]: 0% | plant injury at 16 g/ha [9, 16]: 0% | plant injury at 31 g/ha [9, 17]: 0% | plant injury at 62 g/ha [9, 18]: 0% | plant injury at 125 g/ha [9, 18]: 0% | pest or weed control at 16 g/ha [10, 14]: 95% | pest or weed control at 31 g/ha [10, 15]: 100% | pest or weed control at 62 g/ha [10, 14]: 100% | pest or weed control at 125 g/ha [10, 14]: 100% | pest or weed control at 16 g/ha [10, 16]: 100% | pest or weed control at 31 g/ha [10, 17]: 100% | pest or weed control at 62 g/ha [10, 18]: 100% | pest or weed control at 125 g/ha [10, 18]: 100% | pest or weed control at 16 g/ha [11, 14]: 0% | pest or weed control at 31 g/ha [11, 15]: 0% | pest or weed control at 62 g/ha [11, 14]: 0% | pest or weed control at 125 g/ha [11, 14]: 0% | pest or weed control at 16 g/ha [11, 16]: 0% | pest or weed control at 31 g/ha [11, 17]: 0% | pest or weed control at 62 g/ha [11, 18]: 0% | pest or weed control at 125 g/ha [11, 18]: 0%
